For data set [1], the target named is T1, c-MET (Homo sapiens, UniProt P08581).
T1 construct: The recombinant DNA His-Tev-MET (956-1390) in pFastBac(Invitrogen); His (N, cleaved yes); Tev (TEV protease site) (N, cleaved yes); made in house; host or cells: SF21 insect cells (baculovirus, pFastBac)
As to the kind of experiment: Test A: HTRF Met test in 96-well format. The format is biochemical. The method, then: I) Expression and Purification of MET, Cytoplasmic Domain
The recombinant DNA His-Tev-MET (956-1390) in pFastBac(Invitrogen) is transfected in insect cells and after several stages of viral amplification, the final stock of baculovirus is tested for expression of the protein of interest.
After infection for 72 h at 27° C. with the recombinant virus, the SF21 cell cultures are harvested by centrifugation and the cellular deposits are stored at −80° C.
The cellular deposits are resuspended in the lysis buffer (buffer A [50 mM HEPES, pH 7.5, 250 mM NaCl, Glycerol 10%, TECP 1 mM]; +cocktail of protease inhibitors Roche Diagnostics without EDTA, ref 1873580), stirred at 4° C. until homogeneous, then lysed mechanically using apparatus of the “Dounce” type.
After centrifugation, the lysis supernatant is incubated for 2 h at 4° C. with Nickel Chelate resin (His-Trap 6 Fast Flow™, GE HealthCare). After washing with 20 volumes of Tp A, the suspension is packed in a column, and the proteins are eluted with a gradient of buffer B ([…]+290 mM imidazole).
The fractions containing the protein of interest with a view to electrophoretic analysis (SDS PAGE) are collected, concentrated by ultrafiltration (cut-off 10 kDa) and injected in an exclusion chromatography column (Superdex™ 200, GE HealthCare) equilibrated with buffer A.
After enzymatic cleavage of the tag Histidine, the protein is reinjected in a new IMAC Nickel Chelate chromatography column (His-Trap 6 Fast Flow™, GE HealthCare) equilibrated with Buffer A. The fractions eluted with a gradient of buffer B and containing the protein of interest after electrophoresis (SDS PAGE), are finally collected and stored at −80° C.
For the production of autophosphorylated protein, the preceding fractions are incubated for 1 h at room temperature after adding ATP 2 mM, MgCl2 2 mM, and Na3VO4 4 mM. After stopping the reaction with 5 mM of EDTA, the reaction mixture is injected in a HiPrep desalting column (GE HealthCare) equilibrated beforehand with buffer A+Na3VO4 4 mM; the fractions containing the protein of interest (SDS PAGE analysis) are collected and stored at −80° C. The degree of phosphorylation is verified by mass spectrometry (LC-MS), and by peptide mapping.
A) HTRF Met test in 96-well format
In a final volume of 50 μl of enzymatic reaction mixture, final c-MET 5 nM is incubated in the presence of the molecule to be tested (for a final concentration range from 0.17 nM to 10 μM, final DMSO 3%) in buffer MOPS 10 mM pH 7.4, DTT 1 mM, Tween 20 0.01%. The reaction is initiated by the substrate solution to obtain the final concentrations of poly-(GAT) 1 μg/ml, ATP 10 μM and MgCl2 5 mM. After incubation for 10 min at room temperature, the reaction is stopped with a mix of 30 μl to obtain a final solution of Hepes 50 mM pH 7.5, potassium fluoride 500 mM, BSA 0.1% and EDTA 133 mM in the presence of 80 ng Streptavidin 61SAXLB Cis-Bio Int. and 18 ng anti-phosphotyrosine Mab PT66-Europium Cryptate per well. After 2 hours of incubation at room temperature, reading is carried out at 2 wavelengths 620 nm and 665 nm in a reader for the TRACE/HTRF technique and the percentage inhibition is calculated according to the 665/620 ratios.
(Time-resolved FRET reads energy transfer from a long-lived donor to a nearby acceptor.)

For data set [2], the system named is MKN45 cells. Put plainly: Test D: cellular proliferation by 14C-thymidine pulse, MKN45 cells. Type of data set: cell-based. To be noted: Homo sapiens, MKN-45, cellular proliferation by 14C-thymidine pulse; cell line not stated (HCT116 or MKN45). The method, then:
D) Measurement of Cellular Proliferation by 14C-Thymidine Pulse
The cells are sown in Cytostar 96-well plates under 180 μl for 4 hours at 37° C. and 5% CO2: The HCT116 cells at a rate of 2500 cells per well in DMEM medium+10% foetal calf serum+1% of L-glutamine and the MKN45 cells at a rate of 7500 cells per well in RPMI medium+10% foetal calf serum+1% of L-glutamine. After said incubation for 4 hours, the products are added under 10 μl in 20-times concentrated solution according to the method of dilution stated for ELISA. The products are tested at 10 concentrations in duplicate from 10000 nM to 0.3 nM in steps of 3.
After treatment for 72 h, add 10 μl of 14C-thymidine at 10 μCi/ml to obtain 0.1 μCi per well. The incorporation of 14C-thymidine is measured on a Micro-Beta (Perkin-Elmer) after 24 hours of pulse and 96 h of treatment.
All the stages of the test are automated on the BIOMEK 2000 or TECAN stations.

Data set [3] has as its target T2, MET (Homo sapiens, UniProt P08581).
T2 construct: endogenous in cells; host or cells: MKN45 cells
As to the kind of experiment: Test C: inhibition of the autophosphorylation of MET, ELISA technique (pppY1230, 1234, 1235), MKN45 cells. The format is cell-based. As for the experimental part: C) Inhibition of the Autophosphorylation of MET; ELISA Technique (pppY1230, 1234, 1235)
a) Cellular lysates: Sow the MKN45 cells in a 96-well plate (Cell coat BD polylysine) at 20 000 cells/well under 200 μl of medium RPMI+10% FCS+1% L-glutamine. Leave to adhere to the incubator for 24 h.
The cells are treated on the day after sowing with the products at 6 concentrations in duplicate for 1 h. At least 3 control wells are treated with the same amount of final DMSO.
Dilution of the products: Stock at 10 mM in pure DMSO—range from 10 mM to 30 μM with steps of 3 of pure DMSO—Intermediate dilutions to 1/50 in culture medium then taking of 10 μl added directly to the cells (200 μl): final range from 10000 to 30 nM.
At the end of incubation, carefully remove the supernatant and rinse with 200 μl of PBS. Then put 100 μl of lysis buffer directly in the wells on ice and incubate at 4° C. for 30 minutes. Lysis buffer: 10 mM Tris, HCl pH7.4, 100 mM NaCl, 1 mM EDTA, 1 mM EGTA, 1% Triton X-100, 10% glycerol, 0.1% SDS, 0.5% deoxycholate, 20 mM NaF, 2 mM Na3VO4, 1 mM PMSF and antiprotease cocktail.
The 100 μl of lysates are transferred to a V-bottomed polypropylene plate and ELISA is performed next or the plate is frozen at −80° C.
b) ELISA PhosphoMET BioSource Kit KH00281
In each well of the plate from the kit, add 70 μl of dilution buffer from the kit+30 μL of cell lysate or 30 μl of lysis buffer for the blank. Incubate for 2 h at room temperature, stirring gently.
Rinse the wells 4 times with 400 μl of washing buffer from the kit. Incubate with 100 μl of anti-phospho MET antibodies for 1 h at room temperature.
Rinse the wells 4 times with 400 μl of washing buffer from the kit. Incubate with 100 μl of anti-rabbit HRP antibodies for 30 minutes at room temperature (except for the wells with chromogen only).
Rinse the wells 4 times with 400 μl of washing buffer from the kit. Add 100 μL of chromogen and incubate for 30 minutes in the dark at room temperature.
Stop the reaction with 100 μl of stop solution. Read at once at […] 0.1 second in the Wallac Victor plate reader.
The products of formula (I) as defined above show cellular activity in this test between 10 nM and 10 μM.
In general terms: An ELISA detects its analyte on a solid surface through an enzyme-linked reagent.

Broadly, the IC50 is the concentration that inhibits the measured activity by half. One may read the melting point as the temperature of the solid-liquid transition.

Where only a bound is given, the exact number is not on record here.

T1 sequence (P08581 956-1390): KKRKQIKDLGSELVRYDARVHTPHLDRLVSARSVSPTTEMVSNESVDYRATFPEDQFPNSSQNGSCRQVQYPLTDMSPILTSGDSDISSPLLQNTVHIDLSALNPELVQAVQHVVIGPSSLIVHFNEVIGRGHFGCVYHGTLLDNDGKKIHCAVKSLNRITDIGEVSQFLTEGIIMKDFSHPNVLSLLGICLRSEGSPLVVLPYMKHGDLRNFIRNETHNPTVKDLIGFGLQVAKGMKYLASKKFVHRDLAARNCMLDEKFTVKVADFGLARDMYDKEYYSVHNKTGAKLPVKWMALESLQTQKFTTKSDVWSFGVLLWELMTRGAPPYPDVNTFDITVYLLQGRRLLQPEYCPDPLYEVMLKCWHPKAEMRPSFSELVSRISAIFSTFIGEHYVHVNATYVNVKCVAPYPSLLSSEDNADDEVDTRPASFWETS
T2 sequence (P08581 25-1390): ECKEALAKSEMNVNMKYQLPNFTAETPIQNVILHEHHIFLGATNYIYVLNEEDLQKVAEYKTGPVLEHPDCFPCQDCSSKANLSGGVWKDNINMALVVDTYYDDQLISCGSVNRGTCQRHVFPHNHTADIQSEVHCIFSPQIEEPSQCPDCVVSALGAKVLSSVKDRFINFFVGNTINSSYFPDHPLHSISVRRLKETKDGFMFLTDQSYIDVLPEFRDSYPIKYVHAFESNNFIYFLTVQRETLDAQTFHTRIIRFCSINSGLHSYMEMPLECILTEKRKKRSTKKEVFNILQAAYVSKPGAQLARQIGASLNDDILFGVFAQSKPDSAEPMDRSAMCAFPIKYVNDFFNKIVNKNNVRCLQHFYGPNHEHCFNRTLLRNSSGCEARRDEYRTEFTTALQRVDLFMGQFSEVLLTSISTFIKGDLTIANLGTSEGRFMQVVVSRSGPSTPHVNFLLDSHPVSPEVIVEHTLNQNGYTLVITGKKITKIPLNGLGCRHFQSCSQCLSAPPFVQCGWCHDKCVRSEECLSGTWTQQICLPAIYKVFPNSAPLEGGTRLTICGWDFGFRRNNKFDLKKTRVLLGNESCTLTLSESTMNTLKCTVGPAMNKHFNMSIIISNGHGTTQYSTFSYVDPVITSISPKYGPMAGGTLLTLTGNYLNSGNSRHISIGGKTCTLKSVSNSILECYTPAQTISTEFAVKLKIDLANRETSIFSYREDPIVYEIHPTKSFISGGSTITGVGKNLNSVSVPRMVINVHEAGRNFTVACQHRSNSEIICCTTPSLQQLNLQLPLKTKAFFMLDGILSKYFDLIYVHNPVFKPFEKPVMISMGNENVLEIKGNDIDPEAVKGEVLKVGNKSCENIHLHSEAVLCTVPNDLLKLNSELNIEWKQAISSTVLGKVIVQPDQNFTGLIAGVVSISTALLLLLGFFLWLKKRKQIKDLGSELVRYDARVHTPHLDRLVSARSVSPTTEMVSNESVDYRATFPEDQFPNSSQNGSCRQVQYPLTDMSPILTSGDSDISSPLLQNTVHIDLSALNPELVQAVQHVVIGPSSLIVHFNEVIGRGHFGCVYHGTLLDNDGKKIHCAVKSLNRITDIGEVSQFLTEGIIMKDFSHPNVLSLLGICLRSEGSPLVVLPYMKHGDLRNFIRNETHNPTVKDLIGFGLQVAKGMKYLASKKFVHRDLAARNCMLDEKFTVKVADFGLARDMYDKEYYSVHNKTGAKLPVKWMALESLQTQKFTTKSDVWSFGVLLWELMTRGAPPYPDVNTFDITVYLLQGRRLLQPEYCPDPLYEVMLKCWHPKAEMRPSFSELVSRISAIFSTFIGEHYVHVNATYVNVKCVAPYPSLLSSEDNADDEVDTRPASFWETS

On to `O=C(Nc1nc2ccc(OCc3c(Cl)cccc3Cl)cc2s1)C1CC1` [Example 9, N-{6-[(2,6-dichlorobenzyl)oxy]-1,3-benzothiazol-2-yl}cyclopropane carboxamide], for which the melting point amounted to 178 °C. Also, the IC50 in data set [1] is less than 0.1 µM. The IC50 in data set [2] was less than 0.5 µM.

`O=C(NCCN1CCOCC1)Nc1nc2ccc(OCc3cc(Cl)nc(Cl)c3)cc2s1` [Example 16, 1-{6-[(2,6-dichloropyridin-4-yl)methoxy]-1,3-benzothiazol-2-yl}-3-(2-morpholin-4-ylethyl)urea] came in with a melting point of 193 °C. In data set [1], this molecule returned an IC50 of 0.1 to 10 µM. Moreover, the IC50 in data set [2] is more than 10 µM.

Molecule `Cc1cc(COc2ccc3nc(NC(=O)NCCN4CCOCC4)sc3c2)n(C)n1` [Example 20, 1-{6-[(1,3-dimethyl-1H-pyrazol-5-yl)methoxy]-1,3-benzothiazol-2-yl}-3-(2-morpholin-4-ylethyl)urea] registered a melting point of 160 °C. In data set [1], this molecule yielded an IC50 of 0.1 to 10 µM. The same molecule yielded an IC50 in data set [2] of more than 10 µM.

As for `O=C(Nc1nc2cc(F)c(OCc3c(Cl)cccc3Cl)cc2s1)C1CC1` [Example 22, N-{6-[(2,6-dichlorobenzyl)oxy]-5-fluoro-1,3-benzothiazol-2-yl}cyclopropanecarboxamide], the melting point was 215 °C. The IC50 in data set [1] is less than 0.1 µM. For the same molecule, the IC50 in data set [3] lay within 0.5 to 10 µM. This molecule registered an IC50 in data set [2] of more than 10 µM.

Take `CC(Oc1ccc2nc(N)sc2c1)c1c(Cl)ccc(F)c1Cl` (centres unmarked) [Example 23, 6-[1-(2,6-dichloro-3-fluorophenyl)ethoxy]-1,3-benzothiazol-2-amine]: the melting point was in the range of 186 to 194 °C. For the same molecule, in data set [1], the concentration for half-maximal inhibition (IC50) lay within 0.1 to 10 µM. In addition, the IC50 in data set [2] is more than 10 µM.

The molecule `Cc1ccc(F)c(C(C)Oc2ccc3nc(N)sc3c2)c1Cl` (centres unmarked) [Example 27, 6-[1-(2-chloro-6-fluoro-3-methylphenyl)ethoxy]-1,3-benzothiazol-2-amine] yielded a melting point of 170 °C. Besides, in data set [1], the IC50 was in the range of 0.1 to 10 µM. The molecule also showed an IC50 in data set [2] of more than 10 µM.

As to `CC(Oc1ccc2nc(NC(=O)NCCN3CCOCC3)sc2c1)c1c(F)ccc(Cl)c1F` (centres unmarked) [Example 63, 1-{6-[1-(3-chloro-2,6-difluorophenyl)ethoxy]-1,3-benzothiazol-2-yl}-3-(2-morpholin-4-ylethyl)urea], the melting point is 154 °C. In data set [1], this molecule came in with an IC50 of 0.1 to 10 µM. Also, the IC50 in data set [3] lay within 0.5 to 10 µM. In data set [2], this molecule returned an IC50 of more than 10 µM.

As for `CC(Oc1cc2sc(NC(=O)C3CC3)nc2cc1F)c1c(Cl)ccc(F)c1Cl` (centres unmarked) [Example 67, N-{6-[1-(2,6-dichloro-3-fluorophenyl)ethoxy]-5-fluoro-1,3-benzothiazol-2-yl}cyclopropanecarboxamide], the melting point was 186 to 189 °C. This molecule displayed an IC50 in data set [1] of less than 0.1 µM. Besides, in data set [3], the IC50 was less than 0.5 µM. The same molecule yielded an IC50 in data set [2] of less than 0.5 µM.

Take `CCOCCNC(=O)Nc1nc2cc(F)c(OC(C)c3c(Cl)ccc(F)c3Cl)cc2s1` (centres unmarked) [Example 86, 1-{6-[1-(2,6-dichloro-3-fluorophenyl)ethoxy]-5-fluoro-1,3-benzothiazol-2-yl}-3-(2-ethoxyethyl)urea]: the melting point lay within 166 to 167 °C. This molecule also returned an IC50 in data set [1] of less than 0.1 µM. This molecule had an IC50 in data set [3] of less than 0.5 µM. In data set [2], this molecule displayed an IC50 of 0.5 to 10 µM.

As to `CC(Oc1cc2sc(NC(=O)NCCn3cccc3)nc2cc1F)c1c(Cl)ccc(F)c1Cl` (centres unmarked) [Example 91, 1-{6-[1-(2,6-dichloro-3-fluorophenyl)ethoxy]-5-fluoro-1,3-benzothiazol-2-yl}-3-[2-(1H-pyrrol-1-yl)ethyl]urea], the melting point lay within 178 to 198 °C. In data set [1], this molecule returned an IC50 of less than 0.1 µM. In data set [3], the IC50 is 0.5 to 10 µM. In data set [2], this molecule displayed an IC50 of 0.5 to 10 µM.

As for `CC(C)OCCNC(=O)Nc1nc2cc(F)c(OC(C)c3c(Cl)ccc(F)c3Cl)cc2s1` (centres unmarked) [Example 92, 1-{6-[1-(2,6-dichloro-3-fluorophenyl)ethoxy]-5-fluoro-1,3-benzothiazol-2-yl}-3-(2-isopropoxyethyl)urea], the melting point lay within 177 to 184 °C. The IC50 in data set [1] was less than 0.1 µM. Moreover, the IC50 in data set [3] is less than 0.5 µM. Also, the IC50 in data set [2] was in the range of 0.5 to 10 µM.

For the molecule `COCCN(C)C(=O)Nc1nc2cc(F)c(OC(C)c3c(Cl)ccc(F)c3Cl)cc2s1` (centres unmarked) [Example 93, 3-{6-[1-(2,6-dichloro-3-fluorophenyl)ethoxy]-5-fluoro-1,3-benzothiazol-2-yl}-1-(2-methoxyethyl)-1-methylurea], the melting point was in the range of 62 to 67 °C. The IC50 in data set [1] is less than 0.1 µM. Besides, in data set [3], the concentration for half-maximal inhibition (IC50) lay within 0.5 to 10 µM. Moreover, the IC50 in data set [2] lay in the range of 0.5 to 10 µM.

For the molecule `Cc1cc2nc(NC(=O)NCCN3CCOCC3)sc2cc1OC(C)c1c(Cl)ccc(F)c1Cl` (centres unmarked) [Example 107, 1-{6-[1-(2,6-dichloro-3-fluorophenyl)ethoxy]-5-methyl-1,3-benzothiazol-2-yl}-3-[2-(morpholin-4-yl)ethyl]urea], the melting point was in the range of 270 to 276 °C. For the same molecule, the IC50 in data set [1] is less than 0.1 µM. Also, the IC50 in data set [3] is less than 0.5 µM. The molecule further came in with an IC50 in data set [2] of 0.5 to 10 µM.

These data come from patent US8188078B2 (Sanofi-Aventis, priority 2007, dated 2012).
